Data published in PMC3411462, “Long-acting κ opioid antagonists nor-BNI, GNTI and JDTic: pharmacokinetics in mice and lipophilicity” (BMC Pharmacology, 2012).
Read-outs that look alike come from different tables or passages of the source.

Assay: Brain and plasma concentrations in mice after intraperitoneal administration (LC-MS-MS), non-compartmental analysis
Type: in vivo
Conditions: for AUC(0-inf) / concentration at 0.5 h / concentration at 1 h / concentration at 2 h / concentration at 4 h / concentration at 24 h / CL/F / Vd/F: 10 mg/kg; for k el: read-out: Lambda_z (converted); for half-life: read-out: t1/2 (converted)
Experimental: Doses are reported by weight of the specified salt. […] Body mass was measured to ±0.1 g.
Mice were sacrificed by cervical dislocation, then decapitated for collection of brain and blood samples. Trunk blood was collected in 1.5 mL polypropylene micro-centrifuge tubes, shaken with a few crystals of EDTA and cooled in ice-water. Samples were centrifuged at 14,000 rpm (revolutions per minute) for 15 minutes at 3 °C, then stored in glass sample vials at −20 °C until analysis. Brains were removed and immersed for 30 seconds in 2-methylbutane over dry ice, then stored in polypropylene tubes at −20 °C until sample preparation. Sample tubes were thawed in ice-water, distilled water was added (2:1 by weight) and the brain homogenized with a probe sonicator for 3 minutes over ice-water (Fisher Sonic Dismembrator 300 at 35% power). The probe was rinsed with ethanol and distilled water between samples. Brain homogenate was stored in glass sample vials at −20 °C until analysis by LC-MS-MS.
Drug concentrations (ng mL^-1) refer to the free base, and were measured by liquid chromatography-tandem mass spectrometry (LC-MS-MS) as described previously. Briefly, samples were shaken with 3 volumes of methanol and centrifuged at 3000 g. Aliquots of the supernatants were diluted with 5 volumes of water containing an appropriate internal standard. Extracts from in vitro and in vivo experiments were analyzed by multiple reaction monitoring on an API3000 or API4000 LC-MS-MS system with electrospray ion source, controlled and analyzed using the Analyst software package (Applied Biosystems, Foster City, CA). Chromatography was conducted on a Sprite Armor C18 analytical column (20 × 2.1 mm, 10 μm particle size, Analytical Sales and Products, Pompton Plains, NJ) with a 0.5 μm PEEK guard filter. Compounds were eluted with a gradient from 2% to 95% acetonitrile in water, both containing 0.1% formic acid. Compounds were detected in positive ion mode, tuned to the mass transition with the largest intensity. Analyte concentrations were determined by comparison of analyte:internal standard peak area ratios to those of standards prepared in the appropriate matrices.
For calculation of mean concentrations, the earliest values below the MRC were substituted by MRC ÷ 2, as recommended elswhere. Pharmacokinetic parameters were calculated from mean concentrations using PKSolver, employing non-compartmental analysis for extravascular administration. Curves in figures were fitted using Origin 8.5 (OriginLab, Northampton, MA) using 2-compartment models. Confidence intervals and two-tailed p values (unpaired t test) were calculated using Graphpad Quickcalcs. One outlier was identified using Grubbs' test (p < 0.01) and excluded from the analysis; see Additional file 1.

[1] = male, Swiss-Webster, mouse, ip, brain NCA, 10 mg/kg i.p.
[2] = male, Swiss-Webster, mouse, ip, plasma NCA, 10 mg/kg i.p.
[3] = male, Swiss-Webster, mouse, plasma, intraperitoneal, read-out: Conc (plasma, NCA input)
[4] = male, Swiss-Webster, mouse, plasma, ip, 10 mg/kg i.p., read-out: mean (plasma)
[5] = male, Swiss-Webster, mouse, plasma, ip, 10 mg/kg i.p., individual mice, read-out: [drug],plasma (free base equivalent)
[6] = within 1 hour, 10 mg kg^-1 i.p.
[7] = within 4 hours, 10 mg kg^-1 i.p.

Which results are given for `Oc1ccc2c3c1O[C@H]1c4[nH]c5c(c4C[C@@]4(O)[C@@H](C2)N(CC2CC2)CC[C@]314)C[C@@]1(O)[C@H]2Cc3ccc(O)c4c3[C@@]1(CCN2CC1CC1)[C@H]5O4` [nor-BNI, norbinaltorphimine]?
AUC(0-inf) (male, Swiss-Webster, mouse, brain, ip, brain, 10 mg kg^-1 i.p., non-compartmental analysis, read-out: AUC 0–∞,brain): 0.593 µg·h/mL; Tmax (male, Swiss-Webster, mouse, in vivo, ip, ·2HCl salts, 10 mg kg^-1 i.p., mice): 30 min; AUC(0-t) [1]: 0.501 µg·h/mL; Tmax [1]: 30 min; Cmax (male, Swiss-Webster, mouse, ip, brain NCA, 10 mg/kg i.p., read-out: Cmax): 0.443 µg/mL; k el [1]: 0.000288 s⁻¹; half-life [1]: 40.1 min; AUC(0-t) [2]: 5.91 µg·h/mL; Tmax [2]: 30 min; k el [2]: 2.28e-05 s⁻¹; MRT inf (male, Swiss-Webster, mouse, ip, plasma NCA, 10 mg/kg i.p., read-out: MRT 0-inf_obs): 360 min; half-life [2]: 507 min; Cmax (male, Swiss-Webster, mouse, ip, plasma, 10 mg kg^-1 i.p., mice, read-out: C max,p): 4.03 µg/mL; concentration at 0.5 h [3]: 4.03 µg/mL; concentration at 1 h [3]: 1.79 µg/mL; concentration at 2 h [3]: 0.339 µg/mL; concentration at 4 h [3]: 0.148 µg/mL; concentration at 24 h [3]: 0.042 µg/mL; concentration at 0.5 h [4]: 4.03 µg/mL; concentration at 1 h [4]: 1.79 µg/mL; concentration at 2 h [5]: 0.366 µg/mL; concentration at 2 h [4]: 0.339 µg/mL; concentration at 4 h [5]: 0.116 µg/mL; concentration at 4 h [4]: 0.148 µg/mL; concentration at 24 h (male, Swiss-Webster, mouse, plasma, ip, 10 mg/kg i.p., <MRC substituted by MRC/2, read-out: mean (plasma)): 0.042 µg/mL; AUC(0-inf) (male, Swiss-Webster, mouse, plasma, ip, plasma NCA, 10 mg/kg i.p., read-out: AUC 0-inf_obs): 6.42 µg·h/mL; CL/F (male, Swiss-Webster, mouse, plasma, ip, plasma NCA, 10 mg/kg i.p., read-out: Cl/F_obs (converted)): 1.56 L/h/kg; Vd/F (male, Swiss-Webster, mouse, plasma, ip, plasma NCA, 10 mg/kg i.p., read-out: Vz/F_obs): 19 L/kg; AUC(0-inf) (male, Swiss-Webster, mouse, plasma, ip, plasma, 10 mg kg^-1 i.p., non-compartmental analysis, read-out: AUC 0–∞,p): 6.42 µg·h/mL; CL/F (male, Swiss-Webster, mouse, plasma, ip, plasma, 10 mg kg^-1 i.p., non-compartmental analysis, read-out: CL/F (converted)): 1.7 L/h/kg; Vd/F (male, Swiss-Webster, mouse, plasma, ip, plasma, 10 mg kg^-1 i.p., non-compartmental analysis, read-out: V z /F): 19 L/kg; AUMC 0-inf_obs (plasma NCA, 10 mg/kg i.p.): 38503.5 ng/ml*h^2; Tlag (plasma NCA, 10 mg/kg i.p.): 0 h; C max,brain,u (unbound brain, 10 mg kg^-1 i.p., in vivo brain binding assumed at least 3-fold greater than homogenate): < 0.026 µM; Decline of mean brain level from peak [6]: 31%; Decline of mean plasma concentration from peak [6]: 56%; Decline of mean plasma concentration from peak (within 2 hours, 10 mg kg^-1 i.p.): 92%; Decline of brain levels [7]: at least 75%; Decline of mean plasma concentration from peak [7]: at least 80%
